Assay results from patent US4264577A, “Contraceptive methods and compositions” (Eli Lilly and Company, priority 1980, dated 1981).

Legend:
[1] = Drug release rate in vitro from dimethylpolysiloxane rubber, Method A (calcium-free Ringer's, assayed by acrosin inhibition); format: physicochemical
Protocol: An appropriate sample of a dimethylpolysiloxane rubber compound in which is incorporated the test compound is placed in a suitable amount of calcium-free Ringers solution, and the sample and solution are incubated together at 37° C. for a period of time (e.g. 24 hours). The solution is removed and assayed for acrosin inhibition (expressed as units per milligram) using the technique described in Example 1. The equivalent amount of test compound in the removed solution is calculated from standard inhibition curves in which acrosin inhibition is plotted against concentration of the test compound. The calculated result are expressed as micrograms of test compound released per day.
The above test may be repeated for an extended period of time, for example, for 1 day to 360 days, or more, by adding fresh calcium-free Ringer's solution after each removal of the solution for assay.
Samples of a dimethylpolysiloxane rubber composition containing 10% W/W of sodium n-tetradecyl sulfate (prepared by Example 3, Method A) were tested as above described for 14 days. The sample weight was 14 mg. and the amount of added solution was 1 ml. After the 14th day, the release rate from the samples averaged 1-3 micrograms/day.
In another experiment, a dimethylpolysiloxane rubber composition weighing 400 mg. and containing 10% W/W of sodium tetradecyl sulfate (prepared by Example 3, Method A) was studied for a 90-day period.

[2] = target: T1, Acrosin (purified from boar sperm) (Sus scrofa, UniProt P08001); assay: Acrosin inhibition in vitro (BAPNA substrate); format: biochemical; conditions: sodium salts
T1 construct: purified from boar sperm; from tissue; host or cells: boar sperm
Protocol: A control using the buffer solution without the test compound added is also run. A 200 μl-sample of the incubation mixture is then withdrawn and is added to a cuvette containing BAPNA (1 ml.) and triethanolamine buffer (2 ml.). The mixture is stirred and placed in a Gilford recording spectrophotometer. The increase in optical density at 383 nm is measured. One unit of acrosin activity is defined as the amount of acrosin which will cause an increase in optical density at 383 nm. of 0.001/minute. One unit of inhibitory activity is defined as the amount of inhibitor which will cause a reduction in the increase in optical density at 383 nm. of 0.001/minute.

[3] = tested on: female Dutch belted rabbits; assay: Efficacy of a vaginal suppository in female rabbits; format: in vivo, rabbit; conditions: 100 mg. PEG suppository with 1 mg. compound, 15 minutes before breeding; 6 animals; after 12 days
Protocol: Suppositories weighing 100 mg. are made to contain 1 mg. of sodium n-tetradecyl sulfate in a vehicle consisting of 35% polyethylene glycol 400, 35% polyethylene glycol 1540, and 30% polyethylene glycol 4000. A suppository is placed in the vagina of each of six female Dutch belted rabbits. After 15 minutes, each rabbit is bred to a buck of proven fertility and is injected with 100 I.U. of human chorionic gonadotropin. Each of six control animals are similarly treated using identical 100 mg. suppositories made from the same vehicle without the active compound. The animals are sacrificed after 12 days and are examined for embryos.

[4] = Drug release rate in vivo, intrauterine medicated rubber rods; parameters: species or system rabbit; conditions: uterine horn
Protocol: (a) Dimethylpolysiloxane rubber rods (3 mm. diameter shaved to 2 mm.) weighing 40 mg. each and containing 5, 10, or 20% (W/W) of sodium n-tetradecyl sulfate (prepared by Example 3, Method B, lots 218-1, 225-1, and 218-2, respectively) are inserted into the right uterine horn of virgin Dutch -belted female rabbits, as follows:
After 60 days the animals in Group 1 are sacrificed and the rubber rods are removed, washed, and extracted continuously with methanol for 24 hours to remove the remaining sodium n-tetradecyl sulfate. The methanol extract is evaporated. The residue is dissolved in 10% methanol-water and assayed for sodium n-tetradecyl sulfate by the methylene blue method. The amount of active compound remaining in the rod is subtracted from the amount originally present in the rod, and the difference is assumed to be the amount released during the time period. After 120 days or […] the animals in Group 2 and Group 3, respectively, are sacrificed, and the rods were removed and treated as above described. The release of sodium n-tetradecyl sodium sulfate into the uterine fluids, as determined by the afore-described test procedure, after 60, 120, and 180 days is shown in Table 8, below: […]

T1 sequence (P08001 40-338 limits assumed): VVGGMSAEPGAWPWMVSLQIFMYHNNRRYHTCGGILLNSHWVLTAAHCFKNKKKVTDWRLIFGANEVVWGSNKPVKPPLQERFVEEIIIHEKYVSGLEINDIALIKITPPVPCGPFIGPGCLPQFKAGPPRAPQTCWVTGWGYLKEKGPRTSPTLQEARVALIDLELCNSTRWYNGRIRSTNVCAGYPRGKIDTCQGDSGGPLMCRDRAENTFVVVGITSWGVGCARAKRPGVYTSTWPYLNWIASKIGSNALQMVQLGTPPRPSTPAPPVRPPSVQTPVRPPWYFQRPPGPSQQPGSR
T1 sequence (P08001 17-39 limits assumed): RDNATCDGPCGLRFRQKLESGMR

## CCCCCCCCCCCCCCOS(=O)(=O)[O-].[Na+] [n-tetradecyl, sodium n-tetradecyl sulfate]
[1]; 14 mg sample, 10% W/W, 1 ml solution, after the 14th day
  release rate from the samples (average): 1-3 micrograms/day
[1]; 400 mg composition, 10% W/W, 90-day period
  mean release rate: 14 µg/day
[1]; Day 0.08 (2 hr.), 400 mg composition, 10% W/W
  Amount of sodium n-tetradecyl sulfate released: 77 µg/day
[1]; Day 0.16 (2 hr.), 400 mg composition, 10% W/W
  Amount of sodium n-tetradecyl sulfate released: 75 µg/day
[1]; Day 0.32 (8 hr.), 400 mg composition, 10% W/W
  Amount of sodium n-tetradecyl sulfate released: 72 µg/day
[1]; Day 1, 400 mg composition, 10% W/W
  Amount of sodium n-tetradecyl sulfate released: 69 µg/day
[1]; Day 2, 400 mg composition, 10% W/W
  Amount of sodium n-tetradecyl sulfate released: 50 µg/day
[1]; Day 5, 400 mg composition, 10% W/W
  Amount of sodium n-tetradecyl sulfate released: 15 µg/day
[1]; Day 7, 400 mg composition, 10% W/W
  Amount of sodium n-tetradecyl sulfate released: 37.5 µg/day
[1]; Day 9, 400 mg composition, 10% W/W
  Amount of sodium n-tetradecyl sulfate released: 50.0 µg/day
[1]; Day 12, 400 mg composition, 10% W/W
  Amount of sodium n-tetradecyl sulfate released: 13 µg/day
[1]; Day 13, 400 mg composition, 10% W/W
  Amount of sodium n-tetradecyl sulfate released: 0 µg/day
[1]; Day 15, 400 mg composition, 10% W/W
  Amount of sodium n-tetradecyl sulfate released: 25 µg/day
[1]; Day 18, 400 mg composition, 10% W/W
  Amount of sodium n-tetradecyl sulfate released: 28 µg/day
[1]; Day 27, 400 mg composition, 10% W/W
  Amount of sodium n-tetradecyl sulfate released: 10 µg/day
[1]; Day 42.5, 400 mg composition, 10% W/W
  Amount of sodium n-tetradecyl sulfate released: 7.6 µg/day
[1]; Day 50.5, 400 mg composition, 10% W/W
  Amount of sodium n-tetradecyl sulfate released: 10.5 µg/day
[1]; Day 57.5, 400 mg composition, 10% W/W
  Amount of sodium n-tetradecyl sulfate released: 12.0 µg/day
[1]; Day 64.5, 400 mg composition, 10% W/W
  Amount of sodium n-tetradecyl sulfate released: 8.6 µg/day
[1]; Day 72.5, 400 mg composition, 10% W/W
  Amount of sodium n-tetradecyl sulfate released: 8.3 µg/day
[1]; Day 76, 400 mg composition, 10% W/W
  Amount of sodium n-tetradecyl sulfate released: 5.6 µg/day
[1]; Day 83, 400 mg composition, 10% W/W
  Amount of sodium n-tetradecyl sulfate released: 5.1 µg/day
[1]; Day 90, 400 mg composition, 10% W/W
  Amount of sodium n-tetradecyl sulfate released: 5.0 µg/day
[1]; rod used in Table 6
  Release rate from dimethylpolysiloxane, in vitro (Calc. on basis of acrosin inhibition): 1 to 3 mg/day
[2]; Conc. of Test Solution 1 Mg/ml
  Inhibition (units/mg.): 960,000 units/mg.
[2]; Conc. of Test Solution 10 Mg/ml
  Inhibition (units/mg.): 14,200 units/mg.
[3]
  Embryos Per Animal (x + std. dev.): 0.5 ± 1.2
  Total No. of embryos: 3
[4]; 5% compound in rod, 60 days
  Amount of sodium n-tetradecyl sulfate released (μg. per day): 2.25 μg. per day
[4]; 5% compound in rod, 120 days
  Amount of sodium n-tetradecyl sulfate released (μg. per day): 1.80 μg. per day
[4]; 5% compound in rod, 180 days
  Amount of sodium n-tetradecyl sulfate released (μg. per day): 3.60 μg. per day
[4]; 10% compound in rod, 60 days
  Amount of sodium n-tetradecyl sulfate released (μg. per day): 22.1 μg. per day
[4]; 10% compound in rod, 120 days
  Amount of sodium n-tetradecyl sulfate released (μg. per day): 13.7 μg. per day
[4]; 20% compound in rod, 60 days
  Amount of sodium n-tetradecyl sulfate released (μg. per day): 62.4 μg. per day
[4]; 20% compound in rod, 120 days
  Amount of sodium n-tetradecyl sulfate released (μg. per day): 33.5 μg. per day
